Measured values taken from patent US6083964A, “Optical resolution of racemic aminoalkylpyridine anticonvulsants and (+) aminoalkylpyridine enantiomers as highly potent orally effective anticonvulsant drugs and excitatory amino acid antagonists” (K and K Biosciences, Inc., priority 1999, dated 2000).
Like-named read-outs stand apart in the source and are kept apart here.

Experiments:
[1] = tested on: maximal electroshock seizure (MES) in mice; test: Maximal electroshock seizure (MES) test, mice, i.p.; assay type: in vivo, mouse (male Carworth Farms #1); details: for ED50: MES test; for P.I. (protective index, TD50/ED50) / % protection: MES; for % protection: 100 mg/kg
Excerpt: The (+) AAP enantiomers obtained by optical resolution of racemic AAPs and the resulting highly orally effective anticonvulsant compositions of this invention are useful in the treatment of convulsive disorders. […] A series of (+) AAP enantiomers and (-) AAP enantiomers of this invention has been evaluated for anticonvulsant activity by the intraperitoneal (i.p.) and by the oral (p.o.) route using two standard seizure models in the mouse and in the rat, the maximal electroshock seizure (MES) test and the subcutaneous pentylenetetrazol (Metrazole) seizure threshold (scMet) test. […] The following Table 2 presents the results of these anticonvulsant tests with respect to several (+) and (-) AAP enantiomeric compounds derived from optical resolution of racemic AAPs of the present invention. This Table 2 identifies the specific compounds tested by their chemical name and provides the test model, the route of administration, the animal species used, and the anticonvulsant activity and toxicity in terms of ED50 and TD50 values, (the median effective and toxic dose respectively), when intraperitoneally administered to mice, and when orally administered to rats. In mice, i.p.: All compounds are emulsified in 0.5% methylcellulose. The solvent has been tested for anticonvulsant and toxic effects and found to introduce no significant bias into the testing of anticonvulsant activity. The compounds are administered intraperitoneally in a volume of 0.01 ml/gm to male Carworth Farms #1 mice weighing about 20 gm. All compounds are tested at least at three dose levels (30, 100 and 300 mg/kg) at 30 minutes and 4 hours after their administration. The Maximal Electroshock Seizure Test (MES): Maximal electroshock seizures are elicited with a 60 Hz alternating current of 50 mA intensity in mice and about 150 mA intensity in rats (5-7 times that necessary to elicit minimal electroshock seizures), delivered for 0.2 sec via corneal electrodes. A drop of 0.9% saline is instilled in the eye prior to application of the electrodes in order to […]. Abolition of the hind limb tonic extension component of the seizure is defined as protection and results are expressed as number of animals protected/number of animals tested. The Subcutaneous Pentylenetetrazol (Metrazole) Seizure Threshold Test (scMet): A 0.5% solution of 85 mg/kg of pentylenetetrazol is administered subcutaneously in the posterior midline 30 minutes or 4 hours after drug administration to the animal. […] Anticonvulsant Quantification in Mice i.p.: The ED50 values are determined in the MES, scMet and rotorod ataxia test. To determine the ED50 values, five logarithmically spaced doses of the test compound are administered to animals (male Carworth Farms #1 mice) in groups of eight, to cover 0-100% protection, and the dose required to protect 50% of the animals (ED50) together with its 95% confidence limits, is determined graphically.

[2] = tested on: maximal electroshock seizure (MES) in rats; test: Maximal electroshock seizure (MES) test, rats, p.o.; assay type: in vivo, rat (Sprague-Dawley); details: for ED50: Rattus norvegicus, po, MES test, read-out: ED50; for % protection (lowest and highest) during 4 hour period: 4 rats per point
Excerpt: The (+) AAP enantiomers obtained by optical resolution of racemic AAPs and the resulting highly orally effective anticonvulsant compositions of this invention are useful in the treatment of convulsive disorders. […] A series of (+) AAP enantiomers and (-) AAP enantiomers of this invention has been evaluated for anticonvulsant activity by the intraperitoneal (i.p.) and by the oral (p.o.) route using two standard seizure models in the mouse and in the rat, the maximal electroshock seizure (MES) test and the subcutaneous pentylenetetrazol (Metrazole) seizure threshold (scMet) test. […] The following Table 2 presents the results of these anticonvulsant tests with respect to several (+) and (-) AAP enantiomeric compounds derived from optical resolution of racemic AAPs of the present invention. This Table 2 identifies the specific compounds tested by their chemical name and provides the test model, the route of administration, the animal species used, and the anticonvulsant activity and toxicity in terms of ED50 and TD50 values, (the median effective and toxic dose respectively), when intraperitoneally administered to mice, and when orally administered to rats. The Maximal Electroshock Seizure Test (MES): Maximal electroshock seizures are elicited with a 60 Hz alternating current of 50 mA intensity in mice and about 150 mA intensity in rats (5-7 times that necessary to elicit minimal electroshock seizures), delivered for 0.2 sec via corneal electrodes. A drop of 0.9% saline is instilled in the eye prior to application of the electrodes in order to […]. Abolition of the hind limb tonic extension component of the seizure is defined as protection and results are expressed as number of animals protected/number of animals tested. The Subcutaneous Pentylenetetrazol (Metrazole) Seizure Threshold Test (scMet): A 0.5% solution of 85 mg/kg of pentylenetetrazol is administered subcutaneously in the posterior midline 30 minutes or 4 hours after drug administration to the animal. […] This species will be the subject of the complete anticonvulsant quantification test evaluation as described above, but after oral (gavage) administration of the candidate compound.

[3] = Neurological deficit, positional sense test and gait and stance test, rats, p.o.; parameters: species or system rat (Sprague-Dawley); details: rat, in vivo, po
Procedure: Neurotoxicity is determined by the rotorod ataxia test in mice and by the positional sense test and gait and stance test in the rat. The following Table 2 presents the results of these anticonvulsant tests with respect to several (+) and (-) AAP enantiomeric compounds derived from optical resolution of racemic AAPs of the present invention. This Table 2 identifies the specific compounds tested by their chemical name and provides the test model, the route of administration, the animal species used, and the anticonvulsant activity and toxicity in terms of ED50 and TD50 values, (the median effective and toxic dose respectively), when intraperitoneally administered to mice, and when orally administered to rats. […] This species will be the subject of the complete anticonvulsant quantification test evaluation as described above, but after oral (gavage) administration of the candidate compound. […] Neurological deficit in rats is examined by the positional sense test and gait and stance test. […] Inability to do so rapidly indicates a neurologic deficit. In the gait and stance test, a neurologic deficit is indicated by a circular or a zigzag gait, ataxia, abnormal spread of the legs, abnormal body posture, tremor, hyperactivity, lack of exploratory behavior, somnolence, stupor, or catalepsy.

[4] = tested on: neurotoxicity (rotorod ataxia) in mice; test: Neurotoxicity, rotorod ataxia test, mice, i.p.; parameters: species or system mouse (male Carworth Farms #1); details: mouse, in vivo, ip
Procedure: Neurotoxicity is determined by the rotorod ataxia test in mice and by the positional sense test and gait and stance test in the rat. The following Table 2 presents the results of these anticonvulsant tests with respect to several (+) and (-) AAP enantiomeric compounds derived from optical resolution of racemic AAPs of the present invention. This Table 2 identifies the specific compounds tested by their chemical name and provides the test model, the route of administration, the animal species used, and the anticonvulsant activity and toxicity in terms of ED50 and TD50 values, (the median effective and toxic dose respectively), when intraperitoneally administered to mice, and when orally administered to rats. In mice, i.p.: All compounds are emulsified in 0.5% methylcellulose. The solvent has been tested for anticonvulsant and toxic effects and found to introduce no significant bias into the testing of anticonvulsant activity. The compounds are administered intraperitoneally in a volume of 0.01 ml/gm to male Carworth Farms #1 mice weighing about 20 gm. All compounds are tested at least at three dose levels (30, 100 and 300 mg/kg) at 30 minutes and 4 hours after their administration. Neurotoxicity is evaluated in mice by the rotorod ataxia test. The animal is placed on a wooden rod of 1 and 1/8 diameter rotating at 6 rpm. Normal mice can remain on a rod rotating at this speed indefinitely. […] Anticonvulsant Quantification in Mice i.p.: The ED50 values are determined in the MES, scMet and rotorod ataxia test. To determine the ED50 values, five logarithmically spaced doses of the test compound are administered to animals (male Carworth Farms #1 mice) in groups of eight, to cover 0-100% protection, and the dose required to protect 50% of the animals (ED50) together with its 95% confidence limits, is determined graphically.

[5] = rat, p.o. for racemic AAPs, MES

## CC(Nc1ccc(Br)cc1)c1ccncc1 (single isomer, unassigned; (+)) [Compound 11, (+) N-(4-Bromophenyl)-1-(4-pyridyl)ethylamine]
[1]; listed as (6) (+) Enantiomer
  ED50: 34.7 mg/kg
  P.I. (protective index, TD50/ED50): 3.9
[2]; p.o.
  ED50: 9.3 mg/kg
[2]; rat, p.o., MES
  P.I. (protective index, TD50/ED50): > 53.7
[3]
  TD50: > 500 mg/kg
[4]
  TD50: 133.9 mg/kg

## CC(Nc1ccc(Cl)c(Cl)c1)c1ccncc1 (racemic) [N-(3,4-Dichlorophenyl)-1-(4-pyridyl)ethylamine, reference compound]
[2]; [5]
  P.I. (protective index, TD50/ED50): > 16.8
[3]
  TD50: > 500 mg/kg

## CC(Nc1ccc(Cl)cc1)c1ccncc1 (racemic) [N-(4-Chlorophenyl)-1-(4-pyridyl)ethylamine, reference compound]
[2]; p.o. for racemic AAPs
  ED50: 22.9 mg/kg
[2]; [5]
  P.I. (protective index, TD50/ED50): > 20.5
[3]
  TD50: > 470 mg/kg

## CC(Nc1ccc(Br)cc1)c1ccncc1 (single isomer, unassigned; (-)) [Compound 12, (-) N-(4-Bromophenyl)-1-(4-pyridyl)ethylamine]
[1]; listed as (6) (-) Enantiomer
  ED50: 85.5 mg/kg
  P.I. (protective index, TD50/ED50): 3.4
[2]; rat, p.o., 30 mg/kg, 5 time points 0.25-4 hours, MES
  % protection (lowest and highest) during 4 hour period: 25-75%
[4]
  TD50: 287.6 mg/kg

## CCC(Nc1ccc(Cl)c(Cl)c1)c1ccncc1 (single isomer, unassigned; (-)) [Compound 10, (-) N-(3,4-Dichlorophenyl)-1-(4-pyridyl)propylamine]
[1]; listed as (5) (-) Enantiomer
  ED50: 117.3 mg/kg
  P.I. (protective index, TD50/ED50): 2.3
[2]; rat, p.o., 30 mg/kg, 5 time points 0.25-4 hours, MES, listed as (5) (-) Enantiomer
  % protection (lowest and highest) during 4 hour period: 25-100%
[4]
  TD50: 275.2 mg/kg

## CC(Nc1cccc(Cl)c1)c1ccncc1 (racemic) [N-(3-Chlorophenyl)-1-(4-pyridyl)ethylamine, reference compound]
[2]; p.o. for racemic AAPs
  ED50: 34 mg/kg
[2]; [5]
  P.I. (protective index, TD50/ED50): > 14.7
[3]
  TD50: > 500 mg/kg

## CC(Nc1cccc(Cl)c1)c1ccncc1 (single isomer, unassigned; (+)) [Compound 3, (+) N-(3-Chlorophenyl)-1-(4-pyridyl)ethylamine]
[1]; listed as (2) (+) Enantiomer
  % protection: 67%
[2]; rat, p.o., 30 mg/kg, 5 time points 0.25-4 hours, MES, listed as (2) (+) Enantiomer, 30 mg/kg
  % protection (lowest and highest) during 4 hour period: 25-75%

## CCC(Nc1ccc(Cl)cc1)c1ccncc1 (single isomer, unassigned; (-)) [Compound 8, (-) N-(4-Chlorophenyl)-1-(4-pyridyl)propylamine]
[1]; listed as (4) (-) Enantiomer
  ED50: 118.9 mg/kg
  P.I. (protective index, TD50/ED50): 2.3
[2]; rat, p.o., 30 mg/kg, 5 time points 0.25-4 hours, MES, listed as (4) (-) Enantiomer
  % protection (lowest and highest) during 4 hour period: 25-100%
[4]
  TD50: 269.4 mg/kg

## CC(Nc1cccc(Cl)c1)c1ccncc1 (single isomer, unassigned; (-)) [Compound 4, (-) N-(3-Chlorophenyl)-1-(4-pyridyl)ethylamine]
[1]; listed as (2) (-) Enantiomer
  % protection: 33%
[2]; p.o.
  ED50: 29.6 mg/kg
[2]; rat, p.o., 30 mg/kg, 5 time points 0.25-4 hours, MES, listed as (2) (-) Enantiomer
  % protection (lowest and highest) during 4 hour period: 50-100%
[2]; rat, p.o., MES
  P.I. (protective index, TD50/ED50): > 2.1
[3]
  TD50: > 62.5 mg/kg

## CCC(Nc1ccc(Cl)c(Cl)c1)c1ccncc1 (racemic) [N-(3,4-Dichlorophenyl)-1-(4-pyridyl)propylamine, reference compound]
[2]; rat, p.o. for racemic AAPs, 30 mg/kg, 5 time points 0.25-4 hours, MES
  % protection (lowest and highest) during a 4-hour period: 0-50%

## CC(Nc1ccc(Cl)c(Cl)c1)c1ccncc1 (single isomer, unassigned; (-)) [Compound 6, (-) N-(3,4-Dichlorophenyl)-1-(4-pyridyl)ethylamine]
[1]; listed as (3) (-) Enantiomer
  ED50: 125.4 mg/kg
  P.I. (protective index, TD50/ED50): 2.2
[2]; rat, p.o., 30 mg/kg, 5 time points 0.25-4 hours, MES, listed as (3) (-) Enantiomer
  % protection (lowest and highest) during 4 hour period: 25-75%
[4]
  TD50: 279.2 mg/kg

## CC(Nc1ccc(Br)cc1)c1ccncc1 (racemic) [N-(4-Bromophenyl)-1-(4-pyridyl)ethylamine, reference compound]
[2]; p.o. for racemic AAPs
  ED50: 20.9 mg/kg
[2]; [5]
  P.I. (protective index, TD50/ED50): > 23.9
[3]
  TD50: > 500 mg/kg

## CCC(Nc1ccc(Cl)cc1)c1ccncc1 (racemic) [N-(4-Chlorophenyl)-1-(4-pyridyl)propylamine, reference compound]
[2]; p.o. for racemic AAPs
  ED50: 25 mg/kg
[2]; [5]
  P.I. (protective index, TD50/ED50): > 20
[3]
  TD50: > 500 mg/kg
